# Test results published in patent US6552225B1, “Chemical compounds” (AstraZeneca AB, priority 1999, dated 2003).
# Experiments:
# PDH = conditions: cited from earlier work
# [1] = cited from earlier work
Compound,melting point,activity of PDH (PDH; after acute administration in animals),"proportion of PDH in its active form (PDH; single administration, 150 mg/kg, intraperitoneally)","glycaemia ([1]; Stacpoole et al., 1978)",plasma glucose ([1]; after repeated administration)
COc1cc(S(=O)(=O)Nc2ccccc2)c(OC)cc1NC(=O)[C@@](C)(O)C(F)(F)F,194 to 195 °C,–,–,–,–
"O=C(O)C(Cl)Cl [DCA, dichloroacetic acid]",–,increases the activity of PDH,increased the proportion of PDH in its active form,reducing glycaemia,significant decrease in plasma glucose
